Measurements from PubChem BioAssay AID330 (DTP/NCI, 2004).
Values joined by “and” are separate entries in the source; they are usually repeats but may differ in a detail not shown here. Equal entries are not always repeated. Toxic doses and inconclusive results are not listed. The calls were made as follows: active = survival T/C of 150% or more; inactive = T/C below 125% in these data.

System: P388 leukemia ip, CD2F1 mice, survival T/C
Experiment: NCI In Vivo Anticancer Drug Screen. Data for tumor model P388 Leukemia (intraperitoneal) in CD2F1 (CDF1) mice
Conditions: endpoint: median survival time, higher = longer survival
Procedure, shortened: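 Mice carrying the transplanted tumor received test compound or vehicle. Survival was recorded in each group, and the value is the treated-group measurement divided by that of the vehicle-treated control group.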

[1] = dose: 100.0 mg/kg/injection, schedule: Q01DX001 (ip), vehicle: saline with Tween-80
[2] = dose: 100.0 mg/kg/injection, schedule: Q04DX002 (ip), vehicle: saline with Tween-80
[3] = dose: 200.0 mg/kg/injection, schedule: Q01DX001 (ip), vehicle: saline with Tween-80
[4] = dose: 200.0 mg/kg/injection, schedule: Q04DX002 (ip), vehicle: saline with Tween-80
[5] = dose: 400.0 mg/kg/injection, schedule: Q01DX001 (ip), vehicle: saline with Tween-80
[6] = dose: 400.0 mg/kg/injection, schedule: Q04DX002 (ip), vehicle: saline with Tween-80
[7] = dose: 50.0 mg/kg/injection, schedule: Q01DX009 (ip), vehicle: saline with Tween-80
[8] = dose: 100.0 mg/kg/injection, schedule: Q01DX009 (ip), vehicle: saline with Tween-80
[9] = dose: 50.0 mg/kg/injection, schedule: Q01DX005 (ip), vehicle: saline with Tween-80
[10] = dose: 100.0 mg/kg/injection, schedule: Q01DX005 (ip), vehicle: saline with Tween-80
[11] = dose: 50.0 mg/kg/injection, schedule: Q01DX005 (ip), vehicle: saline
[12] = dose: 100.0 mg/kg/injection, schedule: Q04DX003 (ip), vehicle: saline with Tween-80
[13] = dose: 200.0 mg/kg/injection, schedule: Q04DX003 (ip), vehicle: saline with Tween-80
[14] = dose: 400.0 mg/kg/injection, schedule: Q04DX003 (ip), vehicle: saline with Tween-80

Measured: T/C

CC(=O)OC1CCC2(C)C(=CCC3C2CCC2(C)C3CC3C(c4ccccc4)=NC(c4ccccc4)C32C(C)=O)C1 (configuration not stated)
inactive: [1] 93 % of control | [2] 108 % of control | [3] 91 % of control | [4] 100 % of control | [5] 90 % of control | [6] 105 % of control

O=C1OC(=O)c2ncccc21
inactive: dose: 6.25 mg/kg/injection, schedule: Q01DX009 (ip), vehicle: saline with Tween-80 101 % of control | dose: 12.5 mg/kg/injection, schedule: Q01DX009 (ip), vehicle: saline with Tween-80 96 % of control | dose: 25.0 mg/kg/injection, schedule: Q01DX009 (ip), vehicle: saline with Tween-80 101 % of control | [7] 111 % of control

N#CN.[Pb]
inactive: dose: 25.0 mg/kg/injection, schedule: Q01DX005 (ip), vehicle: Klucel (hydroxypropylcellulose) (HPC) 115 % of control and 94 % of control | dose: 50.0 mg/kg/injection, schedule: Q01DX005 (ip), vehicle: Klucel (hydroxypropylcellulose) (HPC) 101 % of control (2×) and 104 % of control | dose: 100.0 mg/kg/injection, schedule: Q01DX005 (ip), vehicle: Klucel (hydroxypropylcellulose) (HPC) 107 % of control and 109 % of control and 110 % of control | dose: 200.0 mg/kg/injection, schedule: Q01DX005 (ip), vehicle: Klucel (hydroxypropylcellulose) (HPC) 111 % of control

COc1ccc(C(=O)Cc2nc3nnc(N)n3[nH]c2=O)cc1
inactive: dose: 60.0 mg/kg/injection, schedule: Q01DX005 (ip), vehicle: saline 99 % of control | dose: 120.0 mg/kg/injection, schedule: Q01DX005 (ip), vehicle: saline 104 % of control | dose: 240.0 mg/kg/injection, schedule: Q01DX005 (ip), vehicle: saline 103 % of control

Cc1cccc(NC(=O)CS)n1
inactive: dose: 25.0 mg/kg/injection, schedule: Q01DX009 (ip), vehicle: Klucel (hydroxypropylcellulose) (HPC) 98 % of control | dose: 50.0 mg/kg/injection, schedule: Q01DX009 (ip), vehicle: Klucel (hydroxypropylcellulose) (HPC) 95 % of control

Cc1ccc(S(=O)(=O)N=S(=O)(CCCl)CCCl)cc1
inactive: dose: 12.5 mg/kg/injection, schedule: Q04DX003 (ip), vehicle: saline 98 % of control | dose: 25.0 mg/kg/injection, schedule: Q04DX003 (ip), vehicle: saline 98 % of control | dose: 50.0 mg/kg/injection, schedule: Q04DX003 (ip), vehicle: saline 96 % of control

O=C1c2cccc3c2C2(O)c4c1cccc4C(=O)c1cccc(c12)C3=O
inactive: [7] 100 % of control | [8] 90 % of control

COc1ccc(N=Nc2c(-c3ccccc3)nn(C(=S)S)c2-c2ccccc2)cc1
inactive: [9] 93 % of control | [10] 96 % of control | dose: 200.0 mg/kg/injection, schedule: Q01DX005 (ip), vehicle: saline with Tween-80 93 % of control

CCCNC(c1ccc(N(CC)CC)cc1)C(Cl)(Cl)Cl (configuration not stated)
inactive: [11] 103 % of control | dose: 100.0 mg/kg/injection, schedule: Q01DX005 (ip), vehicle: saline 106 % of control | dose: 200.0 mg/kg/injection, schedule: Q01DX005 (ip), vehicle: saline 96 % of control

CC(C)CC(C)NC(C)CC(C)C (configuration not stated)
inactive: dose: 12.5 mg/kg/injection, schedule: Q01DX005 (ip), vehicle: saline 90 % of control | dose: 25.0 mg/kg/injection, schedule: Q01DX005 (ip), vehicle: saline 97 % of control | [11] 102 % of control and 92 % of control

CC1C[P+](c2ccccc2)(c2ccccc2)Cc2ccccc21 (configuration not stated)
inactive: dose: 6.25 mg/kg/injection, schedule: Q01DX001 (ip), vehicle: saline 101 % of control and 105 % of control and 108 % of control | dose: 12.5 mg/kg/injection, schedule: Q01DX001 (ip), vehicle: saline 101 % of control and 117 % of control

Cn1c(=O)c2c(nc(N3CCN(CCO)CC3)n2CC(O)CCl)n(C)c1=O (configuration not stated)
inactive: dose: 50.0 mg/kg/injection, schedule: Q01DX005 (ip), vehicle: water 100 % of control | dose: 100.0 mg/kg/injection, schedule: Q01DX005 (ip), vehicle: water 99 % of control | dose: 200.0 mg/kg/injection, schedule: Q01DX005 (ip), vehicle: water 99 % of control

Nc1nc2c(c(=O)[nH]1)N(C(=O)c1ccc(S(=O)(=O)F)cc1)C(CNc1ccc(C(=O)NC(CCC(=O)O)C(=O)O)cc1)CN2 (configuration not stated)
inactive: dose: 50.0 mg/kg/injection, schedule: Q04DX003 (ip), vehicle: other 104 % of control | dose: 100.0 mg/kg/injection, schedule: Q04DX003 (ip), vehicle: other 104 % of control | dose: 200.0 mg/kg/injection, schedule: Q04DX003 (ip), vehicle: other 113 % of control

CCOC(OCC)c1ccc([N+](=O)[O-])cc1
inactive: [12] 106 % of control | [13] 100 % of control | [14] 117 % of control

CN1C(=O)C2C=CC1C1C(=O)N(c3ccc([N+](=O)[O-])cc3)C(=O)C21 (configuration not stated)
inactive: [2] 103 % of control | [4] 95 % of control | [6] 95 % of control

CCOC(=O)C1=C(N)C2CC(C)=C(C)CN2C1 (configuration not stated)
inactive: [9] 98 % of control | [10] 100 % of control

C/C(=N/N=C(N)N)c1cnn(C(=N)N)c1C
inactive: dose: 60.0 mg/kg/injection, schedule: Q01DX005 (ip), vehicle: Klucel (hydroxypropylcellulose) (HPC) 99 % of control | dose: 120.0 mg/kg/injection, schedule: Q01DX005 (ip), vehicle: Klucel (hydroxypropylcellulose) (HPC) 114 % of control

CC[CH2][Sn]([CH2]CC)([O]C(C)=O)[c]1ccccc1
inactive: dose: 1.56 mg/kg/injection, schedule: Q01DX009 (ip), vehicle: saline 90 % of control | dose: 3.12 mg/kg/injection, schedule: Q01DX009 (ip), vehicle: saline 86 % of control | dose: 6.25 mg/kg/injection, schedule: Q01DX009 (ip), vehicle: saline 87 % of control | dose: 50.0 mg/kg/injection, schedule: Q01DX009 (ip), vehicle: saline 113 % of control

O=C(Nc1ccccc1)ON=C(c1ccccc1)c1ccccc1
inactive: [1] 97 % of control | [3] 93 % of control | [5] 112 % of control

O=C1CCCCC1C(O)c1c(Cl)cccc1Cl (configuration not stated)
inactive: [7] 99 % of control | [8] 99 % of control | dose: 200.0 mg/kg/injection, schedule: Q01DX009 (ip), vehicle: saline with Tween-80 100 % of control

CCCCN1C(=S)NC(OC)C1(C)C (configuration not stated)
inactive: dose: 50.0 mg/kg/injection, schedule: Q01DX009 (ip), vehicle: suspension in saline 100 % of control | dose: 100.0 mg/kg/injection, schedule: Q01DX009 (ip), vehicle: suspension in saline 94 % of control | dose: 200.0 mg/kg/injection, schedule: Q01DX009 (ip), vehicle: suspension in saline 100 % of control

C=C(C)C12OC3(CCCCCCCCC)OC1C1C4OC4(CO)C(O)C4(O)C(=O)C(C)=CC4C1(O3)C(C)C2OC(C)=O (configuration not stated)
inactive: dose: 12.5 micrograms/kg/injection, schedule: Q01DX009 (ip), vehicle: saline + alcohol 101 % of control | dose: 25.0 micrograms/kg/injection, schedule: Q01DX009 (ip), vehicle: saline + alcohol 104 % of control | dose: 50.0 micrograms/kg/injection, schedule: Q01DX009 (ip), vehicle: saline + alcohol 104 % of control | dose: 100.0 micrograms/kg/injection, schedule: Q01DX009 (ip), vehicle: saline + alcohol 104 % of control | dose: 200.0 micrograms/kg/injection, schedule: Q01DX009 (ip), vehicle: saline + alcohol 123 % of control

Cc1ccc(Cl)cc1NS(=O)(=O)c1ccc(Br)cc1
inactive: [12] 100 % of control | [13] 100 % of control | [14] 104 % of control
